system: MT4; assay: Inhibitory activity against HIV-1 virus in MT-4 human T-lymphoid cells; type: functional; details: read-out: ID50 (the source's name)

SMILES	IC50
CC1CCCCCCCCCCOC(=O)N(CC(O)C(Cc2ccccc2)NC(=O)O[C@H]2CO[C@H]3OCC[C@H]32)C1 (some centres not stated)	2500 nM

molecular target: Human immunodeficiency virus type 1 protease (Human immunodeficiency virus 1) (UniProt Q72874); details: not given

ID50	SMILES
18 nM	CC(C)(C)NC(=O)[C@@H]1C[C@@H]2CCCC[C@@H]2CN1C[C@@H](O)[C@H](Cc1ccccc1)NC(=O)[C@H](CC(N)=O)NC(=O)c1ccc2ccccc2n1

molecular target: Human immunodeficiency virus type 1 protease (Human immunodeficiency virus 1, UniProt Q72874); assay: Compound was tested for its inhibitory potency against human immunodeficiency virus -1 (HIV-1 protease); details: not given

SMILES	Ki
C=CCCCCCCCCN(CC(O)C(Cc1ccccc1)NC(=O)O[C@H]1CO[C@H]2OCC[C@H]21)C(=O)OC(CC=C)c1ccccc1 (some centres not stated)	> 1000 nM
O=C(NC(Cc1ccccc1)C(O)CN1C/C=C\CCCCCCCC(c2ccccc2)OC1=O)O[C@H]1CO[C@H]2OCC[C@H]21 (some centres not stated)	229 nM
C=CCCCCCCCCOC(=O)N(CC(O)C(Cc1ccccc1)NC(=O)O[C@H]1CO[C@H]2OCC[C@H]21)C(C)CC=C (some centres not stated)	> 1000 nM
O=C(NC(Cc1ccccc1)C(O)CN1CCCC/C=C/CCCCCCC(c2ccccc2)OC1=O)O[C@H]1CO[C@H]2OCC[C@H]21 (some centres not stated)	162 nM
O=C(NC(Cc1ccccc1)C(O)CN1CCCCCCCCCCCCC(c2ccccc2)OC1=O)O[C@H]1CO[C@H]2OCC[C@H]21 (some centres not stated)	268 nM
C=CCCCCCCCOC(=O)N(CC(C)CC=C)CC(O)C(Cc1ccccc1)NC(=O)O[C@H]1CO[C@H]2OCC[C@H]21 (some centres not stated)	> 1000 nM
C=CCCCCCCC(OC(=O)N(CCCCC=C)CC(O)C(Cc1ccccc1)NC(=O)O[C@H]1CO[C@H]2OCC[C@H]21)c1ccccc1 (some centres not stated)	444 nM
C=CCCCCCCCC(OC(=O)N(CC=C)CC(O)C(Cc1ccccc1)NC(=O)O[C@H]1CO[C@H]2OCC[C@H]21)c1ccccc1 (some centres not stated)	> 1000 nM
O=C(NC(Cc1ccccc1)C(O)CN1CCCCCCCCCCC(c2ccccc2)OC1=O)O[C@H]1CO[C@H]2OCC[C@H]21 (some centres not stated)	189 nM
O=C(NC(Cc1ccccc1)C(O)CN1CCCCCCCCC/C=C/CC(c2ccccc2)OC1=O)O[C@H]1CO[C@H]2OCC[C@H]21 (some centres not stated)	167 nM
C=CCCCCCCCCOC(=O)N(CC=C)CC(O)C(Cc1ccccc1)NC(=O)O[C@H]1CO[C@H]2OCC[C@H]21 (some centres not stated)	> 1000 nM
C=CCCCCCCCCN(CC(O)C(Cc1ccccc1)NC(=O)O[C@H]1CO[C@H]2OCC[C@H]21)C(=O)OCCC=C (some centres not stated)	> 1000 nM
O=C(NC(Cc1ccccc1)C(O)CN1CCCCCCCCCCCC(c2ccccc2)OC1=O)O[C@H]1CO[C@H]2OCC[C@H]21 (some centres not stated)	357 nM

The remaining lines, values ahead:

Ki	SMILES
53 nM	CC1C/C=C\CCCCCCCCCOC(=O)N1CC(O)C(Cc1ccccc1)NC(=O)O[C@H]1CO[C@H]2OCC[C@H]21 (some centres not stated)
6.1 nM	CC1CCCCCCCCCCOC(=O)N(CC(O)C(Cc2ccccc2)NC(=O)O[C@H]2CO[C@H]3OCC[C@H]32)C1 (some centres not stated)
0.015 nM	COc1ccc(S(=O)(=O)N(CC(C)C)CC(O)C(Cc2ccccc2)NC(=O)O[C@H]2CO[C@H]3OCC[C@H]32)cc1 (some centres not stated)
125 nM	O=C(NC(Cc1ccccc1)C(O)CN1C/C=C\CCCCCCCCOC1=O)O[C@H]1CO[C@H]2OCC[C@H]21 (some centres not stated)
14 nM	O=C(NC(Cc1ccccc1)C(O)CN1CCCCCCCCCCCCOC1=O)O[C@H]1CO[C@H]2OCC[C@H]21 (some centres not stated)
88 nM	O=C(NC(Cc1ccccc1)C(O)CN1CCCCCCCCC/C=C/CCOC1=O)O[C@H]1CO[C@H]2OCC[C@H]21 (some centres not stated)
2 nM	CC(C)(C)NC(=O)[C@@H]1C[C@@H]2CCCC[C@@H]2CN1CC(O)C(Cc1ccccc1)NC(=O)O[C@H]1CO[C@H]2OCC[C@H]21 (some centres not stated)
11 nM	CC1C/C=C/CCCCCCCCOC(=O)N(CC(O)C(Cc2ccccc2)NC(=O)O[C@H]2CO[C@H]3OCC[C@H]32)C1 (some centres not stated)
80 nM	O=C(NC(Cc1ccccc1)C(O)CN1CCCCCCCCCCCOC1=O)O[C@H]1CO[C@H]2OCC[C@H]21 (some centres not stated)
30 nM	CC1CCCCCCCCCCCOC(=O)N1CC(O)C(Cc1ccccc1)NC(=O)O[C@H]1CO[C@H]2OCC[C@H]21 (some centres not stated)

system: Human immunodeficiency virus 1; assay: Compound was tested for its antiviral potency against human immunodeficiency virus type 1; type: functional; details: read-out: ID50 (the source's name)

IC50	SMILES
1.4 nM	COc1ccc(S(=O)(=O)N(CC(C)C)CC(O)C(Cc2ccccc2)NC(=O)O[C@H]2CO[C@H]3OCC[C@H]32)cc1 (some centres not stated)
50 nM	CC(C)(C)NC(=O)[C@@H]1C[C@@H]2CCCC[C@@H]2CN1CC(O)C(Cc1ccccc1)NC(=O)O[C@H]1CO[C@H]2OCC[C@H]21 (some centres not stated)
